Measurements reported in article doi:10.1101/2025.08.21.671483v1, “In vitro and in vivo activity profiles of broad-spectrum bacterial ATP synthase inhibitors” (biorxiv, 2025).
In brackets after ≈: the same amount, converted by molar mass. Where two headings read alike, the source gives them in different places. Where a SMILES comes first, the peptide text is derived from it. Bridges are numbered along the chain shown (N, C = ends). [ ]: non-standard residue; d: D form. The star is where a group is joined. Heptanoyl(5-Me) = CCC(C)CCCC(=O)*; Dab = NCC[C@H](N)C(=O)O

Tests used:
[1] = system: T1, Escherichia coli ATCC 35218; experiment: microbe, parasite or virus in culture; design: species or system bacteria; CLSI broth microdilution MIC, no visible growth
T1 construct: ATCC 35218

[2] = system: T2, Escherichia coli ec310; experiment: microbe, parasite or virus in culture; design: species or system bacteria; CLSI broth microdilution MIC, no visible growth
T2 construct: ec310

[3] = system: T3, Escherichia coli ec308; experiment: microbe, parasite or virus in culture; design: species or system bacteria; CLSI broth microdilution MIC, no visible growth
T3 construct: ec308

[4] = system: T4, Escherichia coli ec309; experiment: microbe, parasite or virus in culture; design: species or system bacteria; CLSI broth microdilution MIC, no visible growth
T4 construct: ec309

[5] = system: T5, Escherichia coli ec305; experiment: microbe, parasite or virus in culture; design: species or system bacteria; CLSI broth microdilution MIC, no visible growth
T5 construct: ec305

[6] = system: T6, Escherichia coli ATCC BAA2471; experiment: microbe, parasite or virus in culture; design: species or system bacteria; CLSI broth microdilution MIC, no visible growth
T6 construct: ATCC BAA-2471

[7] = system: T7, Escherichia coli 70122 CW-2007; experiment: microbe, parasite or virus in culture; design: species or system bacteria; CLSI broth microdilution MIC, no visible growth
T7 construct: 70122 CW-2007

[8] = system: T8, Escherichia coli 95882 CW-2011; experiment: microbe, parasite or virus in culture; design: species or system bacteria; CLSI broth microdilution MIC, no visible growth
T8 construct: 95882 CW-2011

[9] = system: T9, Escherichia coli ec302; experiment: microbe, parasite or virus in culture; design: species or system bacteria; CLSI broth microdilution MIC, no visible growth
T9 construct: ec302

[10] = system: T10, E. coli ATCC 25922; experiment: microbe, parasite or virus in culture; design: species or system bacteria; CLSI broth microdilution MIC, no visible growth; conditions: Escherichia coli
T10 construct: ATCC 25922

[11] = system: T11, Citrobacterfreundii ATCC 8090; experiment: organism not typed; design: species or system bacteria; CLSI broth microdilution MIC, no visible growth; conditions: read-out: Table 5 IMI MIC
T11 construct: ATCC 8090

[12] = system: T12, E. coli MC4100 lptD4213; experiment: microbe, parasite or virus in culture; conditions: Escherichia coli, MC4100LPTD4213, read-out: MIC
T12 construct: MC4100 lptD4213 membrane-compromised

[13] = system: S. aureus ATCC 29740hemB; experiment: microbe, parasite or virus in culture; conditions: Staphylococcus aureus, ATCC29740HEMB, read-out: MIC
[14] = system: T13, E. coli MC4100 WT; experiment: microbe, parasite or virus in culture; design: species or system bacteria; CLSI broth microdilution MIC, no visible growth; conditions: Escherichia coli, MC4100WT
T13 construct: MC4100 (ATCC 35695)

[15] = system: T14, S. aureus ATCC 29740 (Newbould); experiment: microbe, parasite or virus in culture; design: species or system bacteria; CLSI broth microdilution MIC, no visible growth; conditions: Staphylococcus aureus
T14 construct: ATCC 29740 (Newbould)

[16] = system: T10, E. coli ATCC 25922; experiment: microbe, parasite or virus in culture; design: species or system bacteria; CLSI broth microdilution MIC, no visible growth; conditions: Escherichia coli; remark: listed apart in the source
[17] = system: T15, E. coli MC4100 acrAB; experiment: microbe, parasite or virus in culture; conditions: Escherichia coli, MC4100ACRAB, read-out: MIC
T15 construct: MC4100 acrAB efflux-deficient

[18] = target: T16, S. aureus ATP synthase (Staphylococcus aureus, UniProt Q99SF0); experiment: ATP production by membrane vesicles, luciferase luminescence; format: biochemical; conditions: […] NADH, 1 mM ADP, 10 mM potassium phosphate; 30 min preincubation, 60 min reaction
T16 construct: gene atpE
From the text: ATP production by membrane vesicles, luciferase luminescence on S. aureus ATP synthase

[19] = system: T17, Escherichia coli ATCC 25922; experiment: microbe, parasite or virus in culture; conditions: ATCC25922, read-out: MIC (ug/ml) first column
T17 construct: ATCC 25922

[20] = target: T18, E. coli ATP synthase (Escherichia coli, UniProt P68699); experiment: ATP production by membrane vesicles, luciferase luminescence; format: biochemical; conditions: […] NADH, 1 mM ADP, 10 mM potassium phosphate; 30 min preincubation, 60 min reaction
T18 construct: gene atpE
From the text: ATP production by membrane vesicles, luciferase luminescence on E. coli ATP synthase

CCC(C)CCCC(=O)N[C@@H](CCN)C(=O)N[C@H](C(=O)N[C@@H](CCN)C(=O)N[C@H]1CCNC(=O)[C@H]([C@@H](C)O)NC(=O)[C@H](CCN)NC(=O)[C@H](CCN)NC(=O)[C@H](CC(C)C)NC(=O)[C@@H](CC(C)C)NC(=O)[C@H](CCN)NC1=O)[C@@H](C)O (stereo partly drawn) [CST, colistin] ({Heptanoyl(5-Me)}-[Dab]T[Dab][Dab][Dab][dL]L[Dab][Dab]T; lactam 4-C)
MIC ([1]; ATCC35218, read-out: CST MIC): 2 µg/mL (≈ 1.73 µM)
MIC ([2]; EC310, read-out: CST MIC): 1 µg/mL (≈ 0.865 µM)
MIC ([3]; EC308, read-out: CST MIC): 0.5 µg/mL (≈ 0.433 µM)
MIC ([4]; EC309, read-out: CST MIC): 1 µg/mL (≈ 0.865 µM)
MIC ([5]; EC305, read-out: CST MIC): 0.5 µg/mL (≈ 0.433 µM)
MIC ([6]; ATCCBAA2471, read-out: CST MIC): 1 µg/mL (≈ 0.865 µM)
MIC ([7]; 70122CW2007, read-out: CST MIC): 1 µg/mL (≈ 0.865 µM)
MIC ([8]; 95882CW2011, read-out: CST MIC): 0.5 µg/mL (≈ 0.433 µM)
MIC ([9]; EC302, read-out: CST MIC): 0.5 µg/mL (≈ 0.433 µM)
MIC ([10]; ATCC25922, read-out: CST MIC): 1 µg/mL (≈ 0.865 µM)

C[C@@H](O)[C@H]1C(=O)N2C(C(=O)O)=C(SCCNC=N)C[C@H]12 [IMI, imipenem]
MIC [11]: 1 µg/mL (≈ 3.34 µM)

C[C@H]1CC[C@]2(NC1)O[C@H]1C[C@H]3[C@@H]4CC[C@H]5C[C@@H](O)CC[C@]5(C)[C@H]4CC[C@]3(C)[C@H]1[C@@H]2C [TO, tomatidine]
MIC [12]: > 128 µg/mL
MIC [13]: ≤ 0.25 µg/mL
MIC ([14]; read-out: TO MIC): > 128 µg/mL
MIC ([15]; ATCC29740, read-out: TO MIC): > 128 µg/mL
MIC ([16]; ATCC25922, read-out: TO MIC): > 128 µg/mL
MIC [17]: > 128 µg/mL

C[C@@H](O)[C@H]1C(=O)N2C(C(=O)O)=C(S[C@@H]3CN[C@H](C(=O)N(C)C)C3)[C@H](C)[C@H]12 [MEM, meropenem]
MIC ([1]; ATCC35218, read-out: MEM MIC): 0.06 µg/mL (≈ 0.156 µM)
MIC ([2]; EC310, read-out: MEM MIC): 0.06 µg/mL (≈ 0.156 µM)
MIC ([3]; EC308, read-out: MEM MIC): 0.06 µg/mL (≈ 0.156 µM)
MIC ([4]; EC309, read-out: MEM MIC): 0.06 µg/mL (≈ 0.156 µM)
MIC ([5]; EC305, read-out: MEM MIC): 0.06 µg/mL (≈ 0.156 µM)
MIC ([6]; ATCCBAA2471, read-out: MEM MIC): > 32 µg/mL
MIC ([7]; 70122CW2007, read-out: MEM MIC): 0.06 µg/mL (≈ 0.156 µM)
MIC ([8]; 95882CW2011, read-out: MEM MIC): 4 µg/mL (≈ 10.4 µM)
MIC ([9]; EC302, read-out: MEM MIC): 0.06 µg/mL (≈ 0.156 µM)
MIC ([10]; ATCC25922, read-out: MEM MIC): 0.06 µg/mL (≈ 0.156 µM)

C[C@H]1CC[C@]2(NC1)O[C@H]1C[C@H]3[C@@H]4CC[C@H]5CC(NCCN)CC[C@]5(C)[C@H]4CC[C@]3(C)[C@H]1[C@@H]2C (mixture of isomers) [TM-02]
MIC ([1]; ATCC35218, read-out: Table 3 TM-02 MIC): 32 µg/mL
MIC ([2]; EC310, read-out: Table 3 TM-02 MIC): 32 µg/mL
MIC ([3]; EC308, read-out: Table 3 TM-02 MIC): 8 µg/mL
MIC ([4]; EC309, read-out: Table 3 TM-02 MIC): 32 µg/mL
MIC ([5]; EC305, read-out: Table 3 TM-02 MIC): 4 µg/mL
MIC ([6]; ATCCBAA2471, read-out: Table 3 TM-02 MIC): 32 µg/mL
MIC ([7]; 70122CW2007, read-out: Table 3 TM-02 MIC): 16 µg/mL
MIC ([8]; 95882CW2011, read-out: Table 3 TM-02 MIC): 32 µg/mL
MIC ([9]; EC302, read-out: Table 3 TM-02 MIC): 32 µg/mL
MIC [12]: 0.5 µg/mL
MIC [13]: ≤ 0.25 µg/mL
IC50 [18]: 0.51 ± 0.17 µM
MIC [19]: 32 µg/mL
MIC ([14]; read-out: TM-02 MIC): 16 µg/mL
IC50 [20]: 1.49 ± 0.28 µM
MIC ([15]; ATCC29740, read-out: TM-02 MIC): 4 µg/mL
MIC ([16]; ATCC25922, read-out: TM-02 MIC): 32 µg/mL
MIC [17]: 8 µg/mL
